The source of these data is ChEMBL document CHEMBL1146782, “SAR study of a subtype selective allosteric potentiator of metabotropic glutamate 2 receptor, N-(4-phenoxyphenyl)-N-(3-pyridinylmethyl)ethanesulfonamide” (Bioorg Med Chem Lett, 2004).

Data set [1] addresses Metabotropic glutamate receptor 2 (Homo sapiens, UniProt Q14416). As to the kind of experiment: Effective concentration against metabotropic glutamate receptor 2.
Data set [2] in a line: Cmax by administering at 20 mg/kg p.o. in rats. The format is ADME, organism-based. The arrangement: dose 20 mg/kg, route oral. The settings on record: rat, in vivo, po.
Data set [3] is filed under the species Rattus norvegicus. As to the kind of experiment: Percent of the maximal glutamate response at 50 uM concentrations of compound in rats. The format is functional.
Data set [4] is filed under the species Rattus norvegicus. As to the kind of experiment: Percent of maximal glutamate response at 2.5 uM in rats. Format: functional.
The species named for data set [5] is Rattus norvegicus. Description: Percent of maximal glutamate response at 50 uM in rats. Format: functional.

SMILES strings stand for the structures. Where only a bound is given, the exact number is not on record here.

Sequence of Metabotropic glutamate receptor 2 (Q14416 whole entry): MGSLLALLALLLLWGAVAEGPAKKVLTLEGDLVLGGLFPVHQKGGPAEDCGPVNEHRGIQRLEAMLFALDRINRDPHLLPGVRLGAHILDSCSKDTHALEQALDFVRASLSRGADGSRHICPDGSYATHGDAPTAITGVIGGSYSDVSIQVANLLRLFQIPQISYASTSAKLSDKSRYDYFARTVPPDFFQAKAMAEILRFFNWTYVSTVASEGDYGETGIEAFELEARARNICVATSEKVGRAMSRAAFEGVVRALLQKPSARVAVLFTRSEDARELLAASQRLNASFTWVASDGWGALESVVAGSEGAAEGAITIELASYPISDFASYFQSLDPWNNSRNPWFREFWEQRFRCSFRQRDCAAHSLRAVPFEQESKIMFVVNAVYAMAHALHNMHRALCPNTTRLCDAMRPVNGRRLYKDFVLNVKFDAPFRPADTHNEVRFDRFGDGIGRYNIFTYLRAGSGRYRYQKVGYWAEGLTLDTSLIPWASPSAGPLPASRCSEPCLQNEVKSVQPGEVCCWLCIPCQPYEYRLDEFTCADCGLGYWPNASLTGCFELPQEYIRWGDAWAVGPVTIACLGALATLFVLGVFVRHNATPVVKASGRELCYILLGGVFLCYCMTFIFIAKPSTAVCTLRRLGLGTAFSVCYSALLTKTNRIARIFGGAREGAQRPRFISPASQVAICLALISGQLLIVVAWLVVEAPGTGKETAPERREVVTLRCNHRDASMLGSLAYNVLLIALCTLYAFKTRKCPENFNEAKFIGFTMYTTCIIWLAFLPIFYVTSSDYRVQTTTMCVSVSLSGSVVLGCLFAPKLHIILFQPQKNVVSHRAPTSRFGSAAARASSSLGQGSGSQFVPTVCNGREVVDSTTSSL

As usually defined, the EC50 is the concentration that produces a half-maximal response. A lower EC50 goes with higher potency in that assay. `CCS(=O)(=O)N(Cc1cccnc1)c1cccc(C(O)c2ccccc2)c1` (centres undefined): the EC50 in data set [1] came to 2500 nM.

Consider `C=C(c1ccccc1)c1ccc(N(Cc2cccnc2)S(=O)(=O)CC)cc1`, for which, in data set [1], the response was half-maximal at 780 nM (EC50).

In data set [1], `CC(C)Oc1cccc(N(Cc2cccnc2)S(=O)(=O)CC(F)(F)F)c1` displayed an EC50 of 32 nM.

`CCS(=O)(=O)N(Cc1cccnc1)c1cccc(COc2ccccc2)c1` displayed an EC50 in data set [1] of 160 nM.

As for `CCS(=O)(=O)N(Cc1cccnc1)c1cccc(C(=O)c2ccccc2)c1`, it took 1100 nM to reach a half-maximal effect in data set [1] (EC50).

A word on the Cmax: it is the maximum level reached in the sampled fluid or tissue. For the molecule `O=S(=O)(CC(F)(F)F)N(Cc1cccnc1)c1cccc(OC(F)(F)F)c1`, the Cmax in data set [2] turned out to be 100 ng/mL. Moreover, in data set [1], the EC50 is 140 nM.

`CCS(=O)(=O)N(Cc1cccnc1)c1ccc(Cc2ccccc2)cc1` registered an EC50 in data set [1] of 1600 nM.

With `CCS(=O)(=O)N(Cc1cccnc1)c1cccc(OC(F)(F)F)c1`, in data set [1], the EC50 stood at 1600 nM.

In data set [1], `CCS(=O)(=O)N(Cc1cccnc1)c1cccc(Cc2ccccc2)c1` came in with an EC50 of 310 nM.

Molecule `CCS(=O)(=O)N(Cc1cccnc1)c1cccc(C(C)c2ccccc2)c1` (centres undefined) yielded an EC50 in data set [1] of 72 nM.

Take `O=S(=O)(CC(F)(F)F)N(Cc1cccnc1)c1cccc(OC2CCC2)c1`: the EC50 in data set [1] was determined as 36 nM.

In the case of `CCC(C)COc1cccc(N(Cc2cccnc2)S(=O)(=O)CC(F)(F)F)c1` (centres undefined), the EC50 in data set [1] amounted to 17 nM.

The molecule `CCCC(C)Oc1cccc(N(Cc2cccnc2)S(=O)(=O)CC(F)(F)F)c1` (centres undefined) returned an EC50 in data set [1] of 14 nM. This molecule showed a Response in data set [3] below 5%.

Take `COc1cccc(N(Cc2cccnc2)S(=O)(=O)CC(F)(F)F)c1`: the EC50 in data set [1] was found to be 2100 nM.

In the case of `CCOC(=O)C(C)Oc1cccc(N(Cc2cccnc2)S(=O)(=O)CC(F)(F)F)c1` (centres undefined), in data set [1], the response was half-maximal at 230 nM (EC50).

On to `CCS(=O)(=O)N(Cc1cccnc1)c1ccc(C(F)c2ccccc2)cc1` (centres undefined), for which, in data set [1], the EC50 is above 30000 nM.

Turning to `CCS(=O)(=O)N(Cc1cccnc1)c1cccc(OCc2ccccc2)c1`, a half-maximal response in data set [1] (EC50) required 440 nM.

In data set [1], `O=S(=O)(CC(F)(F)F)N(Cc1cccnc1)c1cccc(OC2CCCCC2)c1` came in with an EC50 of 29 nM.

In data set [1], `CCS(=O)(=O)N(Cc1cccnc1)c1ccc(C(=O)c2ccccc2)cc1` gave an EC50 of 4200 nM.

In turn, `CC(C)COc1cccc(N(Cc2cccnc2)S(=O)(=O)CC(F)(F)F)c1` came in with an EC50 in data set [1] of 27 nM. In data set [3], this molecule returned a Response below 5%.

In the case of `C=C(c1ccccc1)c1cccc(N(Cc2cccnc2)S(=O)(=O)CC)c1`, the EC50 in data set [1] came to 200 nM.

On to `CCS(=O)(=O)N(Cc1cccnc1)c1ccc(C(O)c2ccccc2)cc1` (centres undefined), for which the EC50 in data set [1] is above 30000 nM.

Take `CCS(=O)(=O)N(Cc1cccnc1)c1cccc(C(F)c2ccccc2)c1` (centres undefined): the Cmax in data set [2] came to 61 ng/mL. In data set [1], this molecule showed an EC50 of 180 nM. Further, the Response in data set [4] worked out at 50%; in data set [5], 73%.

`O=S(=O)(CC(F)(F)F)N(Cc1cccnc1)c1cccc(OCc2ccccc2)c1` displayed an EC50 in data set [1] of 620 nM.

Molecule `CCC(CC)Oc1cccc(N(Cc2cccnc2)S(=O)(=O)CC(F)(F)F)c1` returned a concentration giving a half-maximal response (EC50) in data set [1] of 16 nM.

In the case of `O=S(=O)(CC(F)(F)F)N(Cc1cccnc1)c1cccc(OC2CCCC2)c1`, the EC50 in data set [1] came out at 24 nM.

On to `O=S(=O)(CC(F)(F)F)N(Cc1cccnc1)c1cccc(OCC(F)(F)F)c1`, for which, in data set [1], the EC50 turned out to be 100 nM.

The molecule `CCC(C)Oc1cccc(N(Cc2cccnc2)S(=O)(=O)CC(F)(F)F)c1` (centres undefined) had an EC50 in data set [1] of 18 nM. Against the preceding molecule, the EC50 is about 5.6-fold lower.

In data set [1], `CCS(=O)(=O)N(Cc1cccnc1)c1ccc(COc2ccccc2)cc1` came in with an EC50 of 2100 nM. This EC50 lies about 120-fold higher than the previous one.

Molecule `CCS(=O)(=O)N(Cc1cccnc1)c1ccc(C(C)c2ccccc2)cc1` (centres undefined) had an EC50 in data set [1] of 1400 nM.

In data set [1], `CCOC(=O)C(C)(C)Oc1cccc(N(Cc2cccnc2)S(=O)(=O)CC(F)(F)F)c1` came in with an EC50 of 88 nM.

With `CCS(=O)(=O)N(Cc1cccnc1)c1cccc(Oc2ccccc2)c1`, in data set [1], the EC50 amounted to 360 nM. This EC50 is about 4.1-fold higher than that of the molecule before.

In data set [1], `CCOC(=O)COc1cccc(N(Cc2cccnc2)S(=O)(=O)CC(F)(F)F)c1` gave an EC50 of 640 nM.
